A melting point compilation (Tetko et al.; mined from patent text by program, amines drawn as free bases though some values may be those of a salt)

Compound | melting point [°C]
O=C(c1ccccc1CBr)c1cc(F)ccc1CBr | 118 to 119
Cc1ccc(CNc2nc(Cl)nc(Nc3ccc4[nH]c(=O)[nH]c4c3)n2)o1 | 164 to 166
CCCC(=O)c1cc2c(OCC)cc(C(=O)OCC)nc2cc1C | 123 to 124
O=c1c(Cc2cccnc2)cn2c3c(cc(Cl)cc13)Oc1cc(Cl)ccc1-2 | 170 to 171
O=C1N(Cc2ncccn2)c2ccccc2C12COc1cc3c(cc12)OCCO3 (centres undefined) | 210 to 212
CSc1nc(C)cc(OC(F)F)n1 | 40 to 42
C=CC(=O)NCc1ccc(CCCl)cc1 | 145 to 147
O=C(O)CN(CC(=O)O)CC(=O)Nc1cc(C(F)(F)F)cc(C(F)(F)F)c1 | 201
CCCC(=O)c1cc(-c2ccccc2)ns1 | 70
Cc1oc(-c2ccccc2)nc1COc1cccc(CSc2cccc(C(=O)O)c2)c1 | 129 to 130
O=S(=O)(NCCCN1CCOCC1)C(F)(F)F | 95 to 97
CCCCCCOC(=O)C1=C(C)NN=C(CC)C1c1cccc([N+](=O)[O-])c1 (centres undefined) | 92
CCCCCNS(=O)(=O)NC(=O)OCc1ccccc1 | 142 to 143
CCCCN1C(=O)NC(=C(C)C)C1=O | 130
CCCCCCCCCCCCCCCC(=O)OCC1OC(N2CNC(N)=NC2=O)CC1O (centres undefined) | 123 to 124
CCOC(=O)c1cc(Br)c2oc(C)c(C)c2c1 | 110 to 111
CNc1cc(CC(C#N)=CNc2ccccc2)cc(N(C)C)c1Cl | 173 to 174
C[C@]12C(=O)[C@]3(C)O[C@]3(C)C(=O)[C@H]1[C@H]1C=C[C@@H]2C1 (racemic) | 72 to 73
Cn1cnc2c(Nc3ccc(Cl)cc3)nc(-c3ccccn3)nc21 | 185 to 190
Nc1nc(O)c2c(n1)NCC(CCCCCC(=O)N[C@@H](CCC(=O)O)C(=O)O)C2 (some centres undefined) | 144

Compound | melting point [°C]
Cc1nn(C)c(C)c1-c1cccc(-n2c(N)nc3ccccc32)c1 | 198 to 200
CC=CCNc1cc(C(=O)O)cc(S(N)(=O)=O)c1Nc1ccc(N)cc1 | 208
CCCCC(Cn1cncn1)(C(N)=O)c1ccc(Cl)cc1Cl (centres undefined) | 170 to 172
CCOC(=O)C1=CC(C(=O)c2cc(C)ccc2O)=CN2CCc3c([nH]c4ccccc34)C12C(=O)OCC (centres undefined) | 208
CC(C)(C)OC(=O)N1CCN(CC(=O)N2CCC3(CC2)Cn2cc([N+](=O)[O-])nc2O3)CC1 | 211 to 213
CN1CCC(=O)C(C(c2ccc(Cl)cc2)c2ccc(Cl)cc2)C1 (centres undefined) | 146 to 147
Cc1nn(-c2cc3nc(S)sc3cc2Br)c(=O)n1C(F)F | 254 to 256
CN1Cc2c(C=O)ncn2-c2ccccc2C1=O | 202 to 203
CN(C)CC(O)c1cc(-c2ccccc2)on1 (centres undefined) | 117 to 119
C=Cc1cc(O[Si](C)(C)C(C)(C)C)cc2nc(-c3ccc(O[Si](C)(C)C(C)(C)C)c(F)c3)oc12 | 93 to 95
CC(=O)COc1ccc(/C=C/C(=O)O)c(Oc2ncc(C(F)(F)F)cc2Cl)c1 | 179 to 180
Nc1ccc2nc3c(=O)[nH][nH]c(=O)c3c(O)c2c1 | 219 to 221
CCOC(=O)c1ncn2cc(Br)sc12 | 171 to 172
CC(C)(C)c1cc(C(=O)NCC(=O)O)ccc1OCc1ccccc1 | 172 to 174
CC1(NCC(O)c2ccc3nnnn3c2)CC1 (centres undefined) | 72 to 73
O=C1NC(=O)c2cc(Nc3ccc(OCc4ccccc4)cc3)c(Nc3ccc(OCc4ccccc4)cc3)cc21 | 187 to 189
CCCCCCC(=O)NCCO | 91 to 93
CN(C)c1ccc(C(=O)NN=C2C(=O)Nc3ccc(I)cc32)cc1 | 324
CCCCCCCc1ccc(CCCCCCC)c(C#N)c1C#N | 4.6
CCOC(=O)c1cc(I)c(F)c(F)c1F | 33 to 34

Compound | melting point [°C]
COCc1cc(Oc2ccc3c(C(=O)Nc4ccc(C)c(C(F)(F)F)c4)cccc3c2)ncn1 | 188
Cc1nc2c(C)cccn2c(=O)c1CCN1CC=C(c2c[nH]c3ccccc23)CC1 | 210 to 212
CC(O)c1cc2cc(O)c(Cl)c(Cl)c2s1 (centres undefined) | 173 to 174
Nc1cc(F)ccc1C(=O)Nc1ccccc1 | 120 to 122
COC(=O)c1ccc(-c2nc(C(N)=O)c3[nH]c(=O)n(-c4ccccc4OC)c3n2)cc1 | 286 to 290
COc1ccc(NC(=O)c2nc3c(s2)C(=O)C=C(NCCCN(C)CCCNC2=CC(=O)c4sc(C)nc4C2=O)C3=O)cc1 | 141 to 142
CCC(N=O)C(C)(C)Cl (centres undefined) | 85 to 86
COc1ncc(Cl)c(C)c1C(=O)O | 127 to 129
N=C(N[N+](=O)[O-])N1CCCC1 | 188 to 191
Cc1cc(C)c2cccc(OCc3c(Cl)ccc(S(=O)(=O)N4CCC[C@H]4C(=O)NCCNC(=O)COc4ccc(C=NN)cc4)c3Cl)c2n1 | 156 to 160
CC(C)(C)OC(=O)Nc1ccc(-c2noc(COc3ccc(F)c(C(N)=O)c3F)n2)cc1 | 165 to 166
CC(C)n1nc(-c2c(F)nc(N)nc2-c2ccccc2)ccc1=O | 231 to 232
O=c1c(NCCCN(Cc2cccs2)c2ccccn2)c(NCc2ccncc2)c1=O | 189 to 192
O=C(O)C1(Cc2ccccc2)CCN(Cc2ccccc2)C1 (centres undefined) | 209 to 210
O=c1oc(-c2cccc(S(=O)C(F)(F)F)c2)nc2ccccc12 (centres undefined) | 106 to 108
C[C@H]1N(C(=O)c2ccc(C(F)(F)F)cc2)CC(=O)O[C@@]1(Cn1cncn1)c1ccc(C(F)(F)F)cc1 (relative stereo) | 189 to 190
COc1cc2nc(S(=O)Cc3ncc(C)c(N(C)C)c3Cl)[nH]c2cc1OC (centres undefined) | 174 to 175
CNc1ccc2sc3ccc(Br)cc3c(=O)c2c1 | 198 to 200

The next lines start with the values.

melting point [°C] | Compound
320 to 322 | CC(C)(C)c1ccc2nc3c(c(O)c2c1)CCCC3
132 to 133 | CC(C)CC(C)Oc1c(-c2ccc(S(C)(=O)=O)cc2)cnn(-c2ccc(F)c(F)c2)c1=O (centres undefined)
36 to 38 | Clc1ccc([C@H]2CC[C@H](CBr)CC2)cc1
138 to 140 | CSc1ccc(C2=C(Br)C(=O)OC2)cc1
64 to 65 | CCOC(=O)N1CCSC1COc1ccccc1OC (single isomer, unassigned; (-))
126 | COC(=O)[C@H](Cc1ccc([N+](=O)[O-])cc1)NC(C)=O
108 to 112 | Cc1cc(N)ccc1-c1ccccc1CO
74 to 77 | COc1cc(N)c(Cl)cc1C(=O)NCC1CCN(CCCCCNC(=O)c2nn(C)c3ccccc23)CC1
> 300 | CN(C)C1CCCN(C(=O)c2ccc(-c3[nH]nc4c3C(=O)c3c(NC(=O)NN5CCOCC5)cccc3-4)s2)C1 (centres undefined)
142 to 143 | CCN1C2=C(C(=O)Nc3ccccc3F)C(=O)CCN2c2ccccc21
91.5 to 93.5 | CN1CCCCC1CCc1ccccc1NS(C)(=O)=O (centres undefined)
150 to 152 | O=C(O)c1nc(C2CC2)nc(NCc2ccco2)c1Cl
145 to 147 | c1ccc(CCN2CCN(c3n[nH]c4c3CCc3sccc3-4)CC2)cc1
83 to 84 | O=C(CCCCCl)c1cc2c3c(c1)CCC(=O)N3CCC2
102 to 104 | O=C(OCCN1CCCC1)c1ccccc1Nc1ccnc2cc(Cl)ccc12
186 to 187 | CC(=O)NC[C@H]1CN(c2ccc3c(c2)CCSc2cn[nH]c2-3)C(=O)O1
130 | CCNC(=O)c1ccc(F)c2c1CC(N(CCCc1c[nH]c3ccc(F)cc13)C1CCC1)CO2 (centres undefined)
192 | Cc1ccc(S(=O)(=O)OCC2CCN(C(c3ccccc3)(c3ccccc3)c3ccccc3)CC2)cc1
156 | CCOC(=O)Cc1nnc(-c2ccc(OC)cc2)n1-c1ccc(OC)cc1
176 to 178 | COc1cc2ncnc(N3CCC(=O)CC3)c2cc1OC
280 | COc1ccc2c(C(F)(F)F)cc(=O)[nH]c2c1NC(C)=O

melting point [°C] | Compound
89 to 91 | COCC1CN(c2ccc(C3CCC(=C(C)C)CC3)cc2)C(=O)O1 (racemic)
241 to 243 | O=C1NCC(c2c[nH]c3ccccc23)C1c1cn2c3c(cccc13)CCC2 (centres undefined)
255 to 260 | O=c1nc(-c2ccc3c(c2)OCO3)c2cc3c(cc2n1CC1CC1)OCO3
97 to 99 | Cc1nn(C)c(NC=O)c1C1=CCC(C)CC1 (centres undefined)
67 to 70 | COc1ccccc1NC1CN([C@H]2CC[C@@H](c3c[nH]c4ccccc43)CC2)C1
227 | Cn1c(=O)n(Cc2ccccc2)c(=O)c2cc(C(=O)O)ccc21
73 to 76 | COc1ccc(Nc2nc(NCCN(C)C)nc(NC3CCCCCC3)n2)cc1F
262 to 263 | COc1ccccc1C1(Cl)C(=O)Nc2ccc(C)c(Cl)c21 (centres undefined)
212 to 214 | CC1CC(=O)NN=C1c1ccc(NC(=NC#N)NCc2ccccn2)cc1 (centres undefined)
163 to 165 | c1ccc2c(C3CCC4(CC3)OCCO4)c[nH]c2c1
133 to 135 | CSc1ccc(Nc2nc(=O)cc(N)n2-c2ccccc2)cc1
267 | CCOc1cc(OC2CCN(C)CC2)c(F)c([C@H](Nc2ccc(C(=N)N)cc2)C(=O)O)c1
243 to 244 | Cc1cnc(N2C(=O)C(O)=C(C(=O)c3ccc(C(C)C)cc3)C2c2ccc(OC(F)(F)F)cc2)s1 (centres undefined)
247 to 249 | O=C(O)COc1ccc(OCCC2CCN(c3ccncc3)CC2)cc1
120 to 123 | COc1ccccc1N1CCN(CCCCCS(=O)(=O)c2cccc3c(=O)c(C)c(-c4ccccc4)oc23)CC1
146 to 148 | COc1ccc(Cl)cc1C(=O)NCCC1CCN(S(=O)(=O)NC(=S)NC2CCCCC2)CC1
253 to 263 | C=CC1(F)CN(C2CCCC2)c2nc(Nc3ccc(C(=O)NN4CCN(C)CC4)cc3OC)ncc2N(C)C1=O (centres undefined)
208 to 209 | CC(C)c1ccc(S(=O)(=O)Nc2ccc(N3CCC(NC(=O)OC(C)(C)C)CC3)nc2)cc1
185 to 195 | COc1cc(N2CCN(C)CC2)ccc1-c1nc2c(N[C@H]3[C@@H](C(N)=O)[C@@H]4C=C[C@H]3C4)c(Br)cnc2[nH]1
105 to 109 | CC(=O)c1ccc(-c2cccc(C(F)(F)F)c2)o1
